Measured values from patent US12679878B2, “CRF2 receptor agonists and their use in therapy” (SANOFI, priority 2020, dated 2026).
Like-named read-outs stand apart in the source and are kept apart here. Starred links: 1 amine or outer side, 2 acyl side, 3 side chain; linkers in the order of their positions; H or OH if unused. Non-standard residues stand in square brackets, D forms with d. Residues, ends and D or L forms follow the SMILES beside them. Groups on a side chain read outwards from the residue. *: point of attachment. C20 diacid = O=C(O)CCCCCCCCCCCCCCCCCCC(=O)*; C18 diacid = O=C(O)CCCCCCCCCCCCCCCCC(=O)*; γGlu = O=C(O)[C@H](CCC(=O)[*:2])N[*:1]; AEEA = NCCOCCOCC(=O)O; Aib = CC(C)(N)C(=O)O

Legend:
human CRF2α receptor = target: T1, human CRF2α receptor (Homo sapiens, UniProt Q13324); assay: cAMP agonism at human CRF2 α receptor in TeloHEAC cells (Example 7); format: cell-based; details: cAMP HTRF, TeloHEAC cells stably expressing human CRF2 α
T1 construct: expressed in transfected cells; host or cells: TeloHEAC
T1 sequence (Q13324 1-411): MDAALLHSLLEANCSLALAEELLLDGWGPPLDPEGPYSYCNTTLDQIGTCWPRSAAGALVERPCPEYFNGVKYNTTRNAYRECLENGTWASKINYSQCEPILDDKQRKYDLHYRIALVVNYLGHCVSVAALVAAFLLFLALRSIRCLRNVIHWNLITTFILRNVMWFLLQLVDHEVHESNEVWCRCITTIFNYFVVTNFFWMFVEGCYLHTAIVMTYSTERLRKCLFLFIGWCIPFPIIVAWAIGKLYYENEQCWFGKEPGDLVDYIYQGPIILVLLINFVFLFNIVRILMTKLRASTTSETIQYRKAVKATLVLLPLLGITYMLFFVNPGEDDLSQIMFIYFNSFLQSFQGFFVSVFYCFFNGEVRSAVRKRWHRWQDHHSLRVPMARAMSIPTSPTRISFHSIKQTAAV
Procedure, shortened: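 Thawed frozen stably transfected cells in HBSS/20 mM HEPES (0% or 0.1% HSA) plus 2 mM IBMX were exposed to compound at 2000 cells/well for 30 min at room temperature. Intracellular cAMP was read by HTRF (665/620 nm ratio) after 1 h lysis; EC50 was derived with 1000 nM urocortin 2 set as 100%.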

CRF1R receptor = target: T2, CRF1R receptor (Homo sapiens, UniProt P34998); assay: cAMP activity at anti-target CRF1R, CRF1R-overexpression CHO cell line (Example 9); format: cell-based; details: for EC50: 0% HSA
T2 construct: host or cells: CHO-K1 clone 2
T2 sequence (P34998 24-415): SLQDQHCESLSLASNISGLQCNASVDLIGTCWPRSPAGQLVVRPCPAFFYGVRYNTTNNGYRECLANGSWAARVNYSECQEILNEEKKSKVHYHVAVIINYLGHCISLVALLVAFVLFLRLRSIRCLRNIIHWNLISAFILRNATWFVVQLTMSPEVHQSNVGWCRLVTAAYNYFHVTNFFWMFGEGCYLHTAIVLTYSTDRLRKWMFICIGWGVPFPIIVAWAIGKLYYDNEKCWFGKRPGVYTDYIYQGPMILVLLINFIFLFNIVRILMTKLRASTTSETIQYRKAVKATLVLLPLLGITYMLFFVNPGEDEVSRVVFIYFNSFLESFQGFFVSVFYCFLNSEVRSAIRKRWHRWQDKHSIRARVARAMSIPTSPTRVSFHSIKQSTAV
Procedure, shortened: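 Using thawed CRF1R-overexpressing CHO cells at 2000 per well, compound is applied for 30 min at RT in HBSS/HEPES buffer with IBMX. Cellular cAMP content is determined via HTRF, and percent activity is calculated against 1000 nM UCN2 defined as 100%.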

[1] = Chemical stability, purity loss by UPLC-UV after 28 days at 40° C. vs 5° C., pH 4.5 acetate buffer (Example 12); format: physicochemical; details: 28 days 40° C. vs 5° C.; pH 4.5, 20 mM acetate buffer; 300 μM
Procedure, shortened: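 300 μM compound (purity-corrected) in 20 mM acetate buffer, pH 4.5, stored 28 days at 5 and 40° C. Purity by UPLC-UV as compound peak area over total peak area. Value is the purity difference between 5° C. and 40° C. samples, relative to the 5° C. purity, in percent.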

[2] = 0% HSA, read-out: EC50 [nM], 0% HSA
[3] = 0.1% HSA, read-out: EC50 [nM], 0.1% HSA
[4] = CRF1R-overexpression CHO cell line
[5] = CRF1R-overexpression CHO cell line, read-out: Emax (%)

CC[C@H](C)[C@H](N)C(=O)N[C@H](C(=O)N[C@@H](CC(C)C)C(=O)N[C@@H](CO)C(=O)N[C@@H](CC(C)C)C(=O)N[C@@H](CC(=O)O)C(=O)N[C@H](C(=O)N1CCC[C@H]1C(=O)N[C@H](C(=O)N[C@@H](CCCCN)C(=O)N[C@@H](CC(C)C)C(=O)N[C@@H](CCCCNC(=O)COCCOCCNC(=O)COCCOCCNC(=O)CC[C@H](NC(=O)CCCCCCCCCCCCCCCCC(=O)O)C(=O)O)C(=O)N[C@@H](CCCCN)C(=O)N[C@H](C(=O)N[C@@H](CC(C)C)C(=O)N[C@@H](CC(C)C)C(=O)N[C@@H](CCC(=O)O)C(=O)N[C@@H](CCC(N)=O)C(=O)N[C@@H](CCC(=O)O)C(=O)N[C@@H](CCCCN)C(=O)N[C@@H](CCC(N)=O)C(=O)N[C@@H](CCCCN)C(=O)N[C@@H](CCCCN)C(=O)N[C@@H](CCC(N)=O)C(=O)N[C@@H](CCCNC(=N)N)C(=O)N[C@@H](CCC(=O)O)C(=O)N[C@@H](CCC(N)=O)C(=O)N[C@@H](C)C(=O)N[C@@H](CCC(=O)O)C(=O)N[C@H](C(=O)N[C@@H](CC(N)=O)C(=O)N[C@@H](CCCCN)C(=O)N[C@@H](CCC(N)=O)C(=O)N[C@H](C(=O)N[C@@H](CC(C)C)C(=O)N[C@@H](C)C(=O)N[C@@H](CCC(N)=O)C(=O)N[C@H](C(N)=O)C(C)C)[C@@H](C)CC)[C@@H](C)O)[C@@H](C)CC)[C@@H](C)CC)C(C)C)C(C)C [compound 35] (H-IVLSLDVPIKLK([AEEA-AEEA-γGlu-C18 diacid])KILLEQEKQKKQREQAETNKQILAQV-NH2; N-terminus assumed)
EC50 (human CRF2α receptor; [2]): 0.24 nM | EC50 (human CRF2α receptor; [3]): 3.82 nM | EC50 (CRF1R receptor; [4]): > 1000 nM | Emax (CRF1R receptor; [5]): 1.77% | Relative purity loss [%] [1]: 4.45%

CC[C@H](C)[C@H](NC(=O)[C@H](CCC(N)=O)NC(=O)[C@H](CCC(=O)O)NC(=O)[C@H](CC(C)C)NC(=O)[C@H](CC(C)C)NC(=O)[C@H](CCC(N)=O)NC(=O)[C@H](CCCCN)NC(=O)[C@H](CC(N)=O)NC(=O)[C@H](CCCCN)NC(=O)[C@H](CCC(=O)O)NC(=O)[C@H](C)NC(=O)[C@H](CCC(N)=O)NC(=O)[C@H](CCC(N)=O)NC(=O)[C@H](CCCNC(=N)N)NC(=O)[C@H](CCC(=O)O)NC(=O)[C@H](CCCCN)NC(=O)[C@H](CCCCN)NC(=O)[C@H](CCC(N)=O)NC(=O)[C@H](CCCCN)NC(=O)[C@H](CCC(N)=O)NC(=O)[C@H](CCC(N)=O)NC(=O)[C@H](CCCCN)NC(=O)[C@H](CC(C)C)NC(=O)[C@H](CC(C)C)NC(=O)[C@@H](NC(=O)[C@H](CCC(N)=O)NC(=O)[C@H](CCCCNC(=O)COCCOCCNC(=O)COCCOCCNC(=O)CC[C@H](NC(=O)CCCCCCCCCCCCCCCCCCC(=O)O)C(=O)O)NC(=O)[C@@H](NC(=O)[C@H](CCCCN)NC(=O)[C@@H](NC(=O)[C@@H]1CCCN1C(=O)[C@@H](NC(=O)[C@H](CC(=O)O)NC(=O)[C@H](CC(C)C)NC(=O)[C@H](CO)NC(=O)[C@H](CC(C)C)NC(=O)[C@@H](NC(=O)[C@@H](N)Cc1ccccc1)[C@@H](C)O)C(C)C)[C@@H](C)O)[C@@H](C)CC)[C@@H](C)CC)C(N)=O [compound 59] (H-FTLSLDVPTKIK([AEEA-AEEA-γGlu-C20 diacid])QILLKQQKQKKERQQAEKNKQLLEQI-NH2)
EC50 (human CRF2α receptor; [2]): 0.15 nM | EC50 (human CRF2α receptor; [3]): 17.4 nM | Emax (CRF1R receptor; CHO): 11.1% | Relative purity loss [%] [1]: 2.85%

CC[C@H](C)[C@H](N)C(=O)N[C@H](C(=O)N[C@@H](CC(C)C)C(=O)N[C@@H](CO)C(=O)N[C@@H](CC(C)C)C(=O)N[C@@H](CC(=O)O)C(=O)N[C@H](C(=O)N1CCC[C@H]1C(=O)N[C@H](C(=O)N[C@@H](CCCCN)C(=O)N[C@@H](CC(C)C)C(=O)N[C@@H](CCCCNC(=O)COCCOCCNC(=O)COCCOCCNC(=O)CC[C@H](NC(=O)CCCCCCCCCCCCCCCCC(=O)O)C(=O)O)C(=O)N[C@@H](CCCCN)C(=O)N[C@H](C(=O)N[C@@H](CC(C)C)C(=O)N[C@@H](CC(C)C)C(=O)N[C@@H](CCCCN)C(=O)N[C@@H](CCC(N)=O)C(=O)N[C@@H](CCC(=O)O)C(=O)N[C@@H](CCCNC(=N)N)C(=O)N[C@@H](CCC(N)=O)C(=O)N[C@@H](CCCCN)C(=O)N[C@@H](CCCCN)C(=O)NC(C)(C)C(=O)N[C@@H](CCCNC(=N)N)C(=O)N[C@@H](CCC(=O)O)C(=O)N[C@@H](CCC(N)=O)C(=O)N[C@@H](C)C(=O)N[C@@H](CCC(=O)O)C(=O)N[C@@H](CCCCN)C(=O)N[C@@H](CC(N)=O)C(=O)N[C@@H](CCCCN)C(=O)N[C@@H](CCC(N)=O)C(=O)N[C@H](C(=O)N[C@@H](CC(C)C)C(=O)N[C@@H](C)C(=O)N[C@@H](CCC(N)=O)C(=O)N[C@H](C(N)=O)C(C)C)[C@@H](C)CC)[C@@H](C)CC)[C@@H](C)CC)C(C)C)C(C)C [compound 99] (H-IVLSLDVPIKLK([AEEA-AEEA-γGlu-C18 diacid])KILLKQERQKK[Aib]REQAEKNKQILAQV-NH2)
EC50 (human CRF2α receptor; [2]): 0.06 nM | EC50 (human CRF2α receptor; [3]): 1.6 nM | EC50 (CRF1R receptor; [4]): > 1000 nM | Emax (CRF1R receptor; [5]): 3.25%

CC[C@H](C)[C@H](N)C(=O)N[C@H](C(=O)N[C@@H](CC(C)C)C(=O)N[C@@H](CO)C(=O)N[C@@H](CC(C)C)C(=O)N[C@@H](CC(=O)O)C(=O)N[C@@H](C(=O)N1CCC[C@H]1C(=O)N[C@H](C(=O)N[C@@H](CCCCN)C(=O)N[C@@H](CC(C)C)C(=O)N[C@@H](CCCCNC(=O)COCCOCCNC(=O)COCCOCCNC(=O)CC[C@H](NC(=O)CCCCCCCCCCCCCCCCC(=O)O)C(=O)O)C(=O)N[C@@H](CCC(N)=O)C(=O)N[C@H](C(=O)N[C@@H](CC(C)C)C(=O)N[C@@H](CC(C)C)C(=O)N[C@@H](CCCCN)C(=O)N[C@@H](CCC(N)=O)C(=O)N[C@@H](CCC(=O)O)C(=O)N[C@@H](CCCNC(=N)N)C(=O)N[C@@H](CCC(N)=O)C(=O)N[C@@H](CCCCN)C(=O)NC(C)(C)C(=O)N[C@@H](CCC(N)=O)C(=O)N[C@@H](CCCNC(=N)N)C(=O)N[C@@H](CCC(N)=O)C(=O)N[C@@H](CCC(N)=O)C(=O)N[C@@H](C)C(=O)N[C@@H](CCC(=O)O)C(=O)N[C@@H](CCCCN)C(=O)N[C@@H](CC(N)=O)C(=O)N[C@@H](CCCCN)C(=O)N[C@@H](CCC(N)=O)C(=O)N[C@H](C(=O)N[C@@H](CC(C)C)C(=O)N[C@@H](C)C(=O)N[C@@H](CCC(N)=O)C(=O)N[C@H](C(N)=O)C(C)C)[C@@H](C)CC)[C@@H](C)CC)[C@@H](C)CC)C(C)C)C(C)C [compound 135] (H-IVLSLD[dV]PIKLK([AEEA-AEEA-γGlu-C18 diacid])QILLKQERQK[Aib]QRQQAEKNKQILAQV-NH2; N-terminus assumed)
EC50 (human CRF2α receptor; [2]): 0.04 nM | EC50 (human CRF2α receptor; [3]): 1.48 nM | EC50 (CRF1R receptor; [4]): > 1000 nM | Emax (CRF1R receptor; [5]): 28.4% | Relative purity loss [%] [1]: 3.55%

CC[C@H](C)[C@H](N)C(=O)N[C@H](C(=O)N[C@@H](CC(C)C)C(=O)N[C@@H](CO)C(=O)N[C@@H](CC(C)C)C(=O)N[C@@H](CC(=O)O)C(=O)N[C@@H](C(=O)N1CCC[C@H]1C(=O)N[C@H](C(=O)N[C@@H](CCCCN)C(=O)N[C@@H](CC(C)C)C(=O)N[C@@H](CCCCNC(=O)COCCOCCNC(=O)COCCOCCNC(=O)CC[C@H](NC(=O)CCCCCCCCCCCCCCCCC(=O)O)C(=O)O)C(=O)N[C@@H](CCC(N)=O)C(=O)N[C@H](C(=O)N[C@@H](CC(C)C)C(=O)N[C@@H](CC(C)C)C(=O)N[C@@H](CCCCN)C(=O)N[C@@H](CCC(N)=O)C(=O)N[C@@H](CCC(=O)O)C(=O)N[C@@H](CCCNC(=N)N)C(=O)N[C@@H](CCC(N)=O)C(=O)N[C@@H](CCCCN)C(=O)N[C@@H](CCCCN)C(=O)NC(C)(C)C(=O)N[C@@H](CCCNC(=N)N)C(=O)N[C@@H](CCC(N)=O)C(=O)N[C@@H](CCCCN)C(=O)N[C@@H](C)C(=O)N[C@@H](CCC(=O)O)C(=O)N[C@@H](CCCCN)C(=O)N[C@@H](CC(N)=O)C(=O)N[C@@H](CCCCN)C(=O)N[C@@H](CCC(N)=O)C(=O)N[C@H](C(=O)N[C@@H](CC(C)C)C(=O)N[C@@H](C)C(=O)N[C@@H](CCC(N)=O)C(=O)N[C@H](C(N)=O)C(C)C)[C@@H](C)CC)[C@@H](C)CC)[C@@H](C)CC)C(C)C)C(C)C [compound 136] (H-IVLSLD[dV]PIKLK([AEEA-AEEA-γGlu-C18 diacid])QILLKQERQKK[Aib]RQKAEKNKQILAQV-NH2; N-terminus assumed)
EC50 (human CRF2α receptor; [2]): 0.05 nM | EC50 (human CRF2α receptor; [3]): 2.41 nM | EC50 (CRF1R receptor; [4]): > 1000 nM | Emax (CRF1R receptor; [5]): 21.8% | Relative purity loss [%] [1]: 3.10%
